Reference: US20250066350A1, “AROMATIC HETEROCYCLE-SUBSTITUTED COMPOUNDS, AND PREPARATION METHOD THEREFOR AND USE THEREOF” (Innovstone Therapeutics Limited, priority 2021, published 2025)
pIC50: −log10 of the molar value. Where two headings read alike, the source gives them in different places.

Experiments:
ATR enzyme = ATR enzyme (Homo sapiens (Human), UniProt Q13535); test: Inhibitory effect on ATR enzyme (HTRF, phospho-P53); format: biochemical; conditions: 90 minutes incubation, 150 nM ATP final; read-out: IC50 for ATR enzyme inhibition
Protocol: Test Example 1. Inhibitory Effect of Compounds of the Present Invention on ATR Enzyme
The following method is used to determine the inhibitory effect of the compounds of the present invention on the ATR enzyme. The experimental method is briefly described as follows:
1. ATR enzyme (Eurofins Pharma Discovery Services, 14-953M)
2. GST-tagged P53 protein (Eurofins Pharma Discovery Services, 14-952M)
15 nM ATR enzyme, 80 nM P53 protein, 300 nM ATP (the final concentrations were 40 nM and 150 nM, respectively), and small molecule compounds of various concentrations (the final concentrations (nM) of the ten points were 2985.0, 895.5, 298.5, 110.56, 33.17, 11.06, 4.09, 1.23, 0.41 and 0.15, respectively, and the final dimethyl sulfoxide concentration was 0.498%) were mixed and incubated at room temperature for 90 minutes. 10 μL of 2× cocktail buffer was added to the mixture of ATR, compound and substrate in the assay plate (anti-phospho-p53-Eu and anti-GST-d2 were diluted in the assay buffer). The resulting mixture was centrifuged at 1000 rpm for 30 seconds, and incubated overnight at 4° C. in the dark (a total of 20 μl in each well). The FRET signal (endpoint) was measured in the Envision instrument (HTRF 665/612 ratio was calculated at 665 nm emission and 612 nm emission). Data were processed using GraphPad software.
The inhibitory activity of the compounds of the present invention on the ATR enzyme can be determined by the test described above, and the measured IC50 values are shown in Table 1.

SNU-601 cells = test: SNU-601 cell proliferation experiment (CellTiter-Glo, intracellular ATP); format: cell-based; conditions: SNU-601 human gastric cancer cells, 5 days, read-out: IC50 for inhibition of SNU-601 cell proliferation
Protocol: The following method is used to evaluate the inhibitory effect of the compounds of the present disclosure on SNU-601 cell proliferation according to the IC50 values by means of detecting the intracellular ATP content. The experimental method is briefly described as follows:
1. SNU-601, human gastric cancer tumor cells (Co-bioer, CBP60507)
SNU-601 cells were cultured in RPMI 1640 medium containing 10% FBS and passaged 2 to 3 times a week at a split ratio of 1:5 or 1:10. During passage, the cells were trypsinized and transferred to a centrifuge tube. The tube was centrifuged at 1000 rpm for 5 minutes, the supernatant medium was discarded, and fresh medium was added to resuspend the cells. 195 μL of cell suspension at a density of 5.128×10^3 cells/mL was added to a 96-well cell culture plate, and 200 μL of complete medium only was added to the periphery wells of the 96-well plate. The culture plate was incubated in an incubator for 24 hours (37° C., 5% CO2).
The sample to be tested was diluted to 2 mM with DMSO, diluted 3-fold serially to 10 concentrations. Blank and control wells were set. 10 μL of the solution containing the compound to be tested prepared in gradient concentrations was added to 50 μL of fresh medium. 5 μL of the above culture medium solution containing the compound was added to the culture plate. The culture plate was incubated in an incubator for 5 days (37° C., 5% CO2). 50 μL of CellTiter-Glo reagent was added to each well of the 96-well cell culture plate after discarding 100 μL/well, and the plate was shaken at room temperature in the dark for 10 min. The chemiluminescent signal values were read in PHERAstar, and data were processed using GraphPad software.
The inhibitory effect of the compounds of the present invention on SNU-601 cell proliferation can be determined by the test described above, and the measured IC50 values are shown in Table 3.

ATR enzyme, sequence (Q13535 whole entry): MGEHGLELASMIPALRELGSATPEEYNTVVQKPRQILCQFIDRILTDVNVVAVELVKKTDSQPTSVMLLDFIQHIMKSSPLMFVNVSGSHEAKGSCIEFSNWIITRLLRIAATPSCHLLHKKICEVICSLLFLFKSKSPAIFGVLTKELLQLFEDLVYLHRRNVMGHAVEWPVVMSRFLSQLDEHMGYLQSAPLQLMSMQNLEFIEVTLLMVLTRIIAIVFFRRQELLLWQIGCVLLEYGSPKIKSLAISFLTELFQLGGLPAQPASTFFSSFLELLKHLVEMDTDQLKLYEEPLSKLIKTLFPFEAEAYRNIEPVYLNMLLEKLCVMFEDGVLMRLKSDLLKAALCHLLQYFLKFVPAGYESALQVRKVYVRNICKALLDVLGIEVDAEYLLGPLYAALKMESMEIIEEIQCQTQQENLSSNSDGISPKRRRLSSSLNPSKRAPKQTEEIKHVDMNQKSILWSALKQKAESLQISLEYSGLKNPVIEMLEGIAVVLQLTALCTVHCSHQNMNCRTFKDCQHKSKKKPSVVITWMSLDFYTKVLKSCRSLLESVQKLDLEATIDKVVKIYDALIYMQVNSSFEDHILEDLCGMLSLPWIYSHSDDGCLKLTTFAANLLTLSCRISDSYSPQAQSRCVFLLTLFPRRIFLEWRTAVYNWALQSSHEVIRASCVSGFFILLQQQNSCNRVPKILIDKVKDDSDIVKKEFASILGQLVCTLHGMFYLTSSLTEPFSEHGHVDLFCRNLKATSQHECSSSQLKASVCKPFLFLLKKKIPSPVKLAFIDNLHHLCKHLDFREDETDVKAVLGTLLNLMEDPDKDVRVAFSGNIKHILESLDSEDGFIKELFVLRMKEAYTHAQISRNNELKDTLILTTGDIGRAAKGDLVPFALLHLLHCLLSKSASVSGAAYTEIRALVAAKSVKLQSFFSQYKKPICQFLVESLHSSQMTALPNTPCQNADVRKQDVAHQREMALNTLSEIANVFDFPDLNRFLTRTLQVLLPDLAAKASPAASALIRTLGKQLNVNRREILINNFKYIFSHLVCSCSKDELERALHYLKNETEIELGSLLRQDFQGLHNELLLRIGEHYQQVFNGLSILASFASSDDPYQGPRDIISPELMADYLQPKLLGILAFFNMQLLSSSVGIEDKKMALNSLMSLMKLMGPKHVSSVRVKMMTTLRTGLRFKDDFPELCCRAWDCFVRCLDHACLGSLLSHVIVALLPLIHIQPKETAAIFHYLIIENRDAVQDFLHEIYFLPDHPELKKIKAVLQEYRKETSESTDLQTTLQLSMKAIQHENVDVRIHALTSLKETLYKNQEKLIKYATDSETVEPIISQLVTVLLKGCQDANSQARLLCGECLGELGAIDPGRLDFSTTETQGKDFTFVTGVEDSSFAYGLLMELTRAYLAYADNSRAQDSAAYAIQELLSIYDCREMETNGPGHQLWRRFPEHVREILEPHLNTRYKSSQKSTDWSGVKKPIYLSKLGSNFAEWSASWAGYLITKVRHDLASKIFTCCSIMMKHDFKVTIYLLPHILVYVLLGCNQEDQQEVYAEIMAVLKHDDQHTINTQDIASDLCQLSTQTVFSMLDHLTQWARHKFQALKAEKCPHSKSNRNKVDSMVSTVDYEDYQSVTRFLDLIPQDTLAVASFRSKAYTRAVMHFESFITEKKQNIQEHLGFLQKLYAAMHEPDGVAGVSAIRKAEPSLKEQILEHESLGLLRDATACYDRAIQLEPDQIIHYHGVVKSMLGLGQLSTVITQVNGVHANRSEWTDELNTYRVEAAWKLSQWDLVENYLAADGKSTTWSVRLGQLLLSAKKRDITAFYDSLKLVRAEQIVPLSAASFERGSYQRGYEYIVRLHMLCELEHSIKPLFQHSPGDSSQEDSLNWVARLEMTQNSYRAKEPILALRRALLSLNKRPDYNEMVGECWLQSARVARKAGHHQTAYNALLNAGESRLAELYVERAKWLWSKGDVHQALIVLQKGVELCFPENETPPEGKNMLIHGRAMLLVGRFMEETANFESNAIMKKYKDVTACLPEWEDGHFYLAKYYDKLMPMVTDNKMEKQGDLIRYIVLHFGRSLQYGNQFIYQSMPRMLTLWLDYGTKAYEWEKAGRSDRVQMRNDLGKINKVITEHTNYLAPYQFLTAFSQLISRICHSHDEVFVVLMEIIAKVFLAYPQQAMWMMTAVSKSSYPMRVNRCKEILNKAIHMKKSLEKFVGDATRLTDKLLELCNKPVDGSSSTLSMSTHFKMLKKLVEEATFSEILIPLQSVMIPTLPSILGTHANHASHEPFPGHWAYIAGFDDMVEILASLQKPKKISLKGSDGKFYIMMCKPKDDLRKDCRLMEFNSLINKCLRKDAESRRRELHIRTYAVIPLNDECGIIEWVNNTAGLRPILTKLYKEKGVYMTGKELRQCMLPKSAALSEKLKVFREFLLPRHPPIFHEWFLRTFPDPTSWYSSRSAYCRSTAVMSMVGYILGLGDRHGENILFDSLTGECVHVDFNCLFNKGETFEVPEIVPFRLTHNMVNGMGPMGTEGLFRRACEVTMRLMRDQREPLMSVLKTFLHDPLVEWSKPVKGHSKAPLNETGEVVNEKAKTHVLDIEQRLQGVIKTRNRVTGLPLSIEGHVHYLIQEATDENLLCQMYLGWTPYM
ATR enzyme, sequence (Q8WXE1 whole entry partner): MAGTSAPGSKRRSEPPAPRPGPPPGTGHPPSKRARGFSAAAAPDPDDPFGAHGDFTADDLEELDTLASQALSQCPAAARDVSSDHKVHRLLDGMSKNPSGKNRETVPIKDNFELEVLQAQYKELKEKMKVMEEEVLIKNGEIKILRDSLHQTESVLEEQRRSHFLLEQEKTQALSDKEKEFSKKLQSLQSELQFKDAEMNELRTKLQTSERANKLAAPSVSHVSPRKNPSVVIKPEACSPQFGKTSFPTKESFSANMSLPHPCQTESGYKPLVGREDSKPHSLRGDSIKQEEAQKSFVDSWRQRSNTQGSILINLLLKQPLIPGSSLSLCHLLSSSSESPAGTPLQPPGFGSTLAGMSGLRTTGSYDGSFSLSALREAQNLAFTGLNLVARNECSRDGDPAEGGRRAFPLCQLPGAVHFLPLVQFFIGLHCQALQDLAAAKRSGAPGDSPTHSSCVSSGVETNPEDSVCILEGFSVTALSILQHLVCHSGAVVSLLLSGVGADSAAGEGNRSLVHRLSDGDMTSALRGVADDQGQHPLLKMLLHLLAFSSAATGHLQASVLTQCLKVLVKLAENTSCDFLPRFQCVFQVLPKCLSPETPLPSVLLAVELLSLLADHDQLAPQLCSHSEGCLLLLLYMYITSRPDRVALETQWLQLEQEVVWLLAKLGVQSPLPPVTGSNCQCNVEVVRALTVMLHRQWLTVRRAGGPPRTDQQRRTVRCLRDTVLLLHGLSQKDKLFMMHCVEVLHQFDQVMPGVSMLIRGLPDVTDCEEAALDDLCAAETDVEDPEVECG

pIC50 (ATR enzyme) | pIC50 (SNU-601 cells; 120 h) | pIC50 (SNU-601 cells) | SMILES
≥ 8.00 | 7.00 to 8.00 |  | C[C@@H]1COCCN1c1cc(-c2ccc(NC(=O)C3CC3)cc2)c2cnn(-c3cc[nH]n3)c2n1 [Example 218]
≥ 8.00 | 7.00 to 8.00 |  | C[C@@H]1COCCN1c1cc(-c2ccc(NC(=O)N3CCNCC3)cc2)c2cnn(-c3cc[nH]n3)c2n1 [Example 219]
≥ 8.00 | 7.00 to 8.00 |  | CCn1ccn(-c2ccc(-c3cc(N4CCOC[C@H]4C)nc4c3cnn4-c3cc[nH]n3)cc2)c1=O [Example 222]
≥ 8.00 | 7.00 to 8.00 |  | C[C@@H]1COCCN1c1cc(-c2ccc(N3CCCCC3=O)cc2C#N)c2cnn(-c3cc[nH]n3)c2n1 [Example 224]
≥ 8.00 | 7.00 to 8.00 |  | Cc1cc(-c2cc(N3CCOC[C@H]3C)nc3c2cnn3-c2cc[nH]n2)ccc1NC(=O)N1CCCC1 [Example 226]
≥ 8.00 | 7.00 to 8.00 |  | CCC(=O)Nc1ccc(-c2cc(N3CCOC[C@H]3C)nc3c2cnn3-c2cc[nH]n2)c(F)c1 [Example 233]
≥ 8.00 | 7.00 to 8.00 |  | C[C@@H]1COCCN1c1cc(-c2ccc(NC(=O)C3CC3)cc2F)c2cnn(-c3cc[nH]n3)c2n1 [Example 234]
≥ 8.00 | 7.00 to 8.00 |  | C[C@@H]1COCCN1c1cc(-c2ccc(NC(=O)C(F)F)cc2F)c2cnn(-c3cc[nH]n3)c2n1 [Example 236]
≥ 8.00 | 7.00 to 8.00 |  | C[C@@H]1COCCN1c1cc(-c2ccc(N3CC4CCC(O4)C3=O)cn2)c2cnn(-c3cc[nH]n3)c2n1 (stereo partly drawn) [Example 237]
≥ 8.00 | 7.00 to 8.00 |  | C[C@@H]1COCCN1c1cc(-c2ccc(N3CCCCC3=O)cc2F)c2cnn(-c3cc[nH]n3)c2n1 [Example 238]
 | 7.00 to 8.00 |  | C[C@@H]1COCCN1c1cc(-c2ccc(N3CCCCC3=O)cc2C(F)(F)F)c2cnn(-c3cc[nH]n3)c2n1 [Example 242]
 | 7.00 to 8.00 |  | C[C@@H]1COCCN1c1cc(-c2ccc(-c3ccnn3C)cc2F)c2cnn(-c3cc[nH]n3)c2n1 [Example 258]
 | 7.00 to 8.00 |  | C[C@@H]1COCCN1c1cc(-c2cc(C#N)c(N3CCCCC3=O)cc2F)c2cnn(-c3cc[nH]n3)c2n1 [Example 259]

Further lines, the compound ahead of its results:

SMILES | pIC50 (ATR enzyme) | pIC50 (SNU-601 cells; 120 h) | pIC50 (SNU-601 cells)
CC(=O)Nc1ccc(-c2cc(N3CCOC[C@H]3C)nc3c2cnn3-c2cc[nH]n2)cc1 [Example 30, (R)-N-(4-(6-(3-methylmorpholinyl)-1-(1H-pyrazolyl-3-yl)-1H-pyrazolyl[3,4-b]pyridin-4-yl)phenyl)acetamide] | ≥ 8.00 | 7.00 to 8.00 | 
CC(=O)C(=O)Nc1ccc(-c2cc(N3CCOC[C@H]3C)nc3c2cnn3-c2cc[nH]n2)cc1 [Example 31, (R)-N-(4-(6-(3-methylmorpholino)-1-(1H-pyrazol-3-yl)-1H-pyrazolo[3,4-b]pyridin-4-yl)phenyl)-2-oxopropanamide] | ≥ 8.00 | 7.00 to 8.00 | 
C[C@@H]1COCCN1c1cc(-c2ccc(NC(=O)C3CCC3)cc2)c2cnn(-c3cc[nH]n3)c2n1 [Example 32, (R)-N-(4-(6-(3-methylmorpholinyl)-1-(1H-pyrazolyl-3-yl)-1H-pyrazolyl[3,4-b]pyridin-4-yl)phenyl)cyclobutanecarboxamide] | ≥ 8.00 | 7.00 to 8.00 | 
C[C@@H]1COCCN1c1cc(-c2ccc(NC(=O)NC3CC3)cc2)c2cnn(-c3cc[nH]n3)c2n1 [Example 33, (R)-1-cyclopropyl-3-(4-(6-(3-methylmorpholinyl)-1-(1H-pyrazolyl-3-yl)-1H-pyrazolyl[3,4-b]pyridin-4-yl)phenyl)urea] | ≥ 8.00 | 7.00 to 8.00 | 
C[C@@H]1COCCN1c1cc(-c2cccc(N3CCCC3=O)c2)c2cnn(-c3cc[nH]n3)c2n1 [Example 58] | ≥ 8.00 |  | 7.00 to 8.00
C[C@@H]1COCCN1c1cc(-c2ccc(N3CCCC3=O)cc2F)c2cnn(-c3cc[nH]n3)c2n1 [Example 59, (R)-1-(3-fluoro-4-(6-(3-methylmorpholino)-1-(1H-pyrazol-3-yl)-1H-pyrazolo[3,4-b]pyridin-4-yl)phenyl)pyrrolidin-2-one] | ≥ 8.00 | ≥ 8.00 | 
C[C@@H]1COCCN1c1cc(-c2ccc(N3CCCN(C)C3=O)cc2)c2cnn(-c3cc[nH]n3)c2n1 [Example 62] | ≥ 8.00 |  | 7.00 to 8.00
C[C@@H]1COCCN1c1cc(-c2ccc(N3CCCNC3=O)cc2)c2cnn(-c3cc[nH]n3)c2n1 [Example 146] | ≥ 8.00 |  | 7.00 to 8.00
CC(=O)Nc1cccc(-c2cc(N3CCOC[C@H]3C)nc3c2cnn3-c2cc[nH]n2)c1 [Example 149] | ≥ 8.00 | 7.00 to 8.00 | 
CCC(=O)Nc1ccc(-c2cc(N3CCOC[C@H]3C)nc3c2cnn3-c2cc[nH]n2)cc1 [Example 150] | ≥ 8.00 |  | 7.00 to 8.00
C[C@@H]1COCCN1c1cc(-c2ccc(NC(=O)C3CCOC3)cc2)c2cnn(-c3cc[nH]n3)c2n1 (stereo partly drawn) [Example 154] | ≥ 8.00 |  | 7.00 to 8.00
C[C@@H]1COCCN1c1cc(-c2ccc(NC(=O)C3CC(N)C3)cc2)c2cnn(-c3cc[nH]n3)c2n1 (stereo partly drawn) [Example 158] | ≥ 8.00 |  | 7.00 to 8.00
C[C@@H]1COCCN1c1cc(-c2ccc(NC(=O)C3CC(O)C3)cc2)c2cnn(-c3cc[nH]n3)c2n1 (stereo partly drawn) [Example 160] | ≥ 8.00 |  | 7.00 to 8.00
CC(=O)N1CCCC(C(=O)Nc2ccc(-c3cc(N4CCOC[C@H]4C)nc4c3cnn4-c3cc[nH]n3)cc2)C1 (stereo partly drawn) [Example 162] | ≥ 8.00 |  | 7.00 to 8.00
Cc1cc(N2CCCCC2=O)ccc1-c1cc(N2CCOC[C@H]2C)nc2c1cnn2-c1cc[nH]n1 [Example 168] | ≥ 8.00 |  | 7.00 to 8.00
C[C@@H]1COCCN1c1cc(-c2ccc(NC(=O)c3cccs3)cc2)c2cnn(-c3cc[nH]n3)c2n1 [Example 172] | ≥ 8.00 |  | 7.00 to 8.00
C[C@@H]1COCCN1c1cc(-c2ccc(N3CC4CCC(O4)C3=O)cc2F)c2cnn(-c3cc[nH]n3)c2n1 (stereo partly drawn) [Example 199] |  | 7.00 to 8.00 | 
C[C@@H]1COCCN1c1cc(-c2ccc(N3CC4CCC(O4)C3=O)c(F)c2)c2cnn(-c3cc[nH]n3)c2n1 (stereo partly drawn) [Example 200, 3-(2-fluoro-4-(6-((R)-3-methylmorpholino)-1-(1H-pyrazol-3-yl)-1H-pyrazolo[3,4-b]pyridin-4-yl)phenyl)-8-oxa-3-azabicyclo[3.2.1]octan-2-one] | ≥ 8.00 | 7.00 to 8.00 | 
C[C@@H]1COCCN1c1cc(-c2ccc(NC(=O)N3CCCC3)cc2)c2cnn(-c3cc[nH]n3)c2n1 [Example 207] |  | 7.00 to 8.00 | 
C[C@@H]1COCCN1c1cc(C2(C#N)CCN(c3cccc(F)c3)CC2)c2cnn(-c3cc[nH]n3)c2n1 [Example 208] | ≥ 8.00 |  | 7.00 to 8.00
C[C@@H]1COCCN1c1cc(C#CC2CCCNC2)c2cnn(-c3ccn[nH]3)c2n1 (stereo partly drawn) [Example 209] |  | 7.00 to 8.00 | 
C[C@@H]1COCCN1c1cc(-c2ccc(NC(=O)C3CCN(C)C3)cc2)c2cnn(-c3cc[nH]n3)c2n1 (stereo partly drawn) [Example 213] |  | 7.00 to 8.00 | 
C[C@@H]1COCCN1c1cc(-c2ccc(NC(=O)c3cccnc3)cc2)c2cnn(-c3cc[nH]n3)c2n1 [Example 214] | ≥ 8.00 |  | 7.00 to 8.00
CNC(=O)N(C)c1ccc(-c2cc(N3CCOC[C@H]3C)nc3c2cnn3-c2cc[nH]n2)cc1 [Example 215] |  | 7.00 to 8.00 | 
CCN1CCN(c2ccc(-c3cc(N4CCOC[C@H]4C)nc4c3cnn4-c3cc[nH]n3)cc2)C1=O [Example 216] | ≥ 8.00 |  | 7.00 to 8.00
C[C@@H]1COCCN1c1cc(-c2ccc(NC(=O)C(F)F)cc2)c2cnn(-c3cc[nH]n3)c2n1 [Example 217] |  | 7.00 to 8.00 | 
